We go through two molecules from patent publication US12178791B2, “Haloallylamine sulfone derivative inhibitors of lysyl oxidases and uses thereof” (Syntara Limited, priority 2018, dated 2024).

“Also recorded” adds a separate entry of the source. Where a name gives a salt, the structure may show the parent alone. Read-outs that look alike come from different tables or passages of the source. Some results are limits rather than exact numbers.

For one assay, the target named is LOXL2 (Homo sapiens (Human), UniProt Q9Y4K0). Briefly: LOXL2 inhibition, Amplex Red oxidation assay. Type of assay: biochemical. The following applies: 30 min preincubation at 37 °C, putrescine substrate. The method, boiled down:
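LOXL2 in 1.2 M urea, 50 mM sodium borate pH 8.2 was preincubated with compound (11-point curve) for 30 min at 37 °C; mofegiline/pargyline were added only for non-purified enzyme. Reaction mix held 2× KM putrescine (10 mM), 120 μM Amplex Red and 1.5 U/mL HRP. H2O2 fluorescence (ex 565/em 590 nm) was read over 30 min, and IC50 came from slopes.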

A further assay addresses LOXL1 (Homo sapiens (Human), UniProt Q08397). Briefly: Jump dilution experiment, sustained inhibition of LOXL1.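 Note: 30× IC50 used only where needed so inhibitor exceeds enzyme concentration.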 Type of assay: biochemical. To be noted: jump dilution after 40 min at 37 °C with 10× or 30× IC50; vs non-inhibited controls. The gist of the method:
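Enzyme preincubated with inhibitor at 100× the inhibition-study enzyme concentration, then diluted 50× in assay buffer and 2× in Amplex Red–HRP–putrescine mix. Fluorescence read; activity expressed as % signal recovery after a set time versus uninhibited controls.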

Assay [1] has as its target Human recombinant SSAO/VAP-1 (Homo sapiens (Human), UniProt Q16853). Briefly: Inhibition of human recombinant SSAO/VAP-1. Type of assay: biochemical. The method, boiled down: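 Purified enzyme (residues 34-763, expressed in CHO Lec8 cells; 0.25 μg/mL in 0.1 M sodium phosphate pH 7.4) was preincubated with compound 30 min at 37 °C. An added mix held 600 μM benzylamine, 120 μM Amplex Red and 1.5 U/mL HRP. Fluorescence (ex 565/em 590 nm) was read every 2.5 min for 30 min at 37 °C, and IC50 was derived from kinetic slopes over 4-11-point curves.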

The target in another assay is Recombinant human MAO-B (Homo sapiens (Human), UniProt P27338). Briefly: Inhibition of human recombinant MAO-B. Type of assay: biochemical. The following applies: benzylamine 100 μM. On the procedure:
The specificity of the compounds of this invention was tested by determining their ability to inhibit MAO-B activities in vitro. Recombinant human MAO-B (0.06 mg/mL; Sigma Aldrich) was used as source of MAO-B enzyme activities. The assay was performed in a similar way as for human SSAO/VAP-1 (Example 28) except, the substrate benzylamine was used at 100 μM.

Assay [2] has as its system deep dermal burn injuries. Put plainly: Porcine burn injury model. Type of assay: in vivo, pigs. To be noted: 3% topical daily for 4 weeks. On the procedure:
Pigs received 4×25 cm^2 deep dermal burn injuries, 2 on each flank. From the time of re-epithelialisation, on each pig, 2 wounds were treated with 3% Compound 1 cream daily for 4 weeks and 2 received control cream. Pigs were euthanized and tissue was processed for analysis.

Assay [3] relates to bleomycin-induced lung fibrosis. Briefly: Bleomycin-induced lung fibrosis model. Type of assay: in vivo, C57Bl/6 mice. The following applies: daily oral gavage for 21 days. The procedure: C57Bl/6 mice were given 1.5 U/kg amounts of generic clinical Bleomycin (Blenoxane) via oropharyngeal administration. Compound 33 was dosed daily via oral gavage for 21 days, after which time, tissues were harvested and analyzed.

The mark [4] stands for this setting: 30 min preincubation at 37 °C, benzylamine 600 μM, read-out: SSAO/VAP-1 Activity IC50.
The mark [5] stands for this setting: vs control cream, hydrochloride.

Human recombinant SSAO/VAP-1, sequence (Q16853 34-763): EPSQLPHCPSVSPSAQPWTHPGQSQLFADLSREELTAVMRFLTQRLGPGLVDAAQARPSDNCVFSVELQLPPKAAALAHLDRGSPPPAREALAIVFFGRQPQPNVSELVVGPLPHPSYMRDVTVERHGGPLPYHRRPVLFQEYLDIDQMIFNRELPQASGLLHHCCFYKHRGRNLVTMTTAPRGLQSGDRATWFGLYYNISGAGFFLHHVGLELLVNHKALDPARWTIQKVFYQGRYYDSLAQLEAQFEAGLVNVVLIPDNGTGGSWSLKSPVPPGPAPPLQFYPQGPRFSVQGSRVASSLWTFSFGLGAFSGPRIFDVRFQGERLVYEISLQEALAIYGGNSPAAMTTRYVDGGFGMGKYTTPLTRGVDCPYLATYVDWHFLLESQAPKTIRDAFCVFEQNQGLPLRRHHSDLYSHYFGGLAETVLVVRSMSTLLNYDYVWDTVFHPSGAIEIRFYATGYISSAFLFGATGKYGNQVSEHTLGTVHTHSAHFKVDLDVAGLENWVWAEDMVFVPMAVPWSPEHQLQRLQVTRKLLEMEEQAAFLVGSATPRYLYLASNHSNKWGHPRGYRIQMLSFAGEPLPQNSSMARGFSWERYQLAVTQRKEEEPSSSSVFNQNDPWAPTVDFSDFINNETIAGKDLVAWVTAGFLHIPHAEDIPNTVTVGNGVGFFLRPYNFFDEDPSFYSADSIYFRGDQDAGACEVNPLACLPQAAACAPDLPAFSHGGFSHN
LOXL2, sequence (Q9Y4K0 26-774): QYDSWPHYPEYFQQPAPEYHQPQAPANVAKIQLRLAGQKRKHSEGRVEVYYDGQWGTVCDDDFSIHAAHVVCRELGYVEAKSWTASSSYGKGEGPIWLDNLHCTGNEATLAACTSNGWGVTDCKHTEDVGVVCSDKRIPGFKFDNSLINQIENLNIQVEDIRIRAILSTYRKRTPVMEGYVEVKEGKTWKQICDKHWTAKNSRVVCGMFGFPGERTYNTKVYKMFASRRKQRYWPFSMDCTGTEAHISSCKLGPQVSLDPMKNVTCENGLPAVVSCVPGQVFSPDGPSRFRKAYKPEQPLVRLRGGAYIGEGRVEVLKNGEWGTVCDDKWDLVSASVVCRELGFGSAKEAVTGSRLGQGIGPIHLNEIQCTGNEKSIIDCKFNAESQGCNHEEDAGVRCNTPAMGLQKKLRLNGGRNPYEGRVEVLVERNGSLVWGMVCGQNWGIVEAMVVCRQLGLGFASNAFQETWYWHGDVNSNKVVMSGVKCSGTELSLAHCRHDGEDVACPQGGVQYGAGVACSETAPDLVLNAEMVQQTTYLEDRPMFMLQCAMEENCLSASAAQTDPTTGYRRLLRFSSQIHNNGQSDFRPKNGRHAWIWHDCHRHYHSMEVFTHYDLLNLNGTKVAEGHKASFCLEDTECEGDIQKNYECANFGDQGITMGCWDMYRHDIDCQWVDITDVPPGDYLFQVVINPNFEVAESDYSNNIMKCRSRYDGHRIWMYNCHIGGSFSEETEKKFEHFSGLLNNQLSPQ
Recombinant human MAO-B, sequence (P27338 whole entry): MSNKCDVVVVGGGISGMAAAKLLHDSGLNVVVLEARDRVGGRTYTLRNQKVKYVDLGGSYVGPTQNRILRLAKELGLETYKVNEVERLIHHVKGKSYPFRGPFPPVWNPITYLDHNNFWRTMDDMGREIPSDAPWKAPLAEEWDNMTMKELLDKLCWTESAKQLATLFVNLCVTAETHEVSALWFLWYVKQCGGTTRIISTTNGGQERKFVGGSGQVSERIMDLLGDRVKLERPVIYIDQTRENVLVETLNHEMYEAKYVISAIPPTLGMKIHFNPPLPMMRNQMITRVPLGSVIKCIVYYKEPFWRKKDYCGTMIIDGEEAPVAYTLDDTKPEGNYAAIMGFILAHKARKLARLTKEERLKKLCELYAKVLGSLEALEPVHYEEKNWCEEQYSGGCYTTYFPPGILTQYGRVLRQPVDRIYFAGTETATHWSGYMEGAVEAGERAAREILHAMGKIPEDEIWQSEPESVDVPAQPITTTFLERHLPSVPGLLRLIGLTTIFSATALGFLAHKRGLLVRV
LOXL1, sequence (Q08397 96-574, species assumed): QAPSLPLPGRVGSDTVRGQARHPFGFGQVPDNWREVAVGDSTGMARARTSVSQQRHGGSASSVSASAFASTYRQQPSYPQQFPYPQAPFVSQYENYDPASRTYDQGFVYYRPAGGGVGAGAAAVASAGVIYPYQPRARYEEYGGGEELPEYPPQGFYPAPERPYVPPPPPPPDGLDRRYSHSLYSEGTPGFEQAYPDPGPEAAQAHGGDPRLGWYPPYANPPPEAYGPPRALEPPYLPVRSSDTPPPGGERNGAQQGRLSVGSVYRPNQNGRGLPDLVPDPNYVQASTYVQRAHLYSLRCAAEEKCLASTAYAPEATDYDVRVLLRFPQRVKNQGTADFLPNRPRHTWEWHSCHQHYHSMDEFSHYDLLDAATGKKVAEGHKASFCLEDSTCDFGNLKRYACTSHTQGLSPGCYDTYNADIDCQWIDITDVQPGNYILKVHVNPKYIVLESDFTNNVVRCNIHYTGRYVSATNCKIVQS

Take `NC/C=C(\F)CS(=O)(=O)c1ccccc1` [Compound 1, (Z)-3-fluoro-4-(phenylsulfonyl)but-2-en-1-amine hydrochloride]: the IC50 on LOXL2 was less than 10 µM; in assay [1] (setting [4]), greater than 30 µM; in assay [1] (second Table 6 (Example 38), read-out: Recombinant human SSAO (rhSSAO) inhibition (IC50)), greater than 100 µM; on Recombinant human MAO-B it was greater than 30 µM. Further, the “LOXL1 - Recovery of activity. (%)” value on LOXL1 is 2.4%. Further, in assay [2], the “Gross morphology and histology: thick collagen fibers” value is given as “reduced density”. In addition, the “LOX activity in treated tissue” value in assay [2] (setting [5]) is listed as “reduction; also recorded: significantly reduced”. In assay [2] (setting [5]), the “total collagen I protein” value was “reduction; also recorded: significantly reduced”.

Regarding `NC/C=C(\F)CS(=O)(=O)c1cccc2cccnc12` [Compound 33, (Z)-3-fluoro-4-(quinolin-8-ylsulfonyl)but-2-en-1-amine dihydrochloride], the IC50 was less than 1 µM on LOXL2, greater than 10 µM in assay [1] (setting [4]) and greater than 30 µM at Recombinant human MAO-B. Also, the “LOXL1 - Recovery of activity. (%)” value at LOXL1 worked out at 4.5%. Besides, in assay [3], the lung weight entry is recorded as “significantly reduced”. Moreover, the “reduction of immature (DHLNL) cross-links per lung” value in assay [3] was 37%. The “reduction of mature (PYD) cross-links per lung” value in assay [3] came to 45%. Also, in assay [3] (dihydrochloride), the Ashcroft score entry is “reduce; also recorded: significantly reduced”.
